Data published in patent publication US9422293B2 (priority 2006, dated 2016).
Structures can show the parent of a compound that is named as a salt.

target: rat TRPV1 (Rattus norvegicus (Rat), UniProt O35433); conditions: read-out: Rat IC50
Sequence (O35433 whole entry): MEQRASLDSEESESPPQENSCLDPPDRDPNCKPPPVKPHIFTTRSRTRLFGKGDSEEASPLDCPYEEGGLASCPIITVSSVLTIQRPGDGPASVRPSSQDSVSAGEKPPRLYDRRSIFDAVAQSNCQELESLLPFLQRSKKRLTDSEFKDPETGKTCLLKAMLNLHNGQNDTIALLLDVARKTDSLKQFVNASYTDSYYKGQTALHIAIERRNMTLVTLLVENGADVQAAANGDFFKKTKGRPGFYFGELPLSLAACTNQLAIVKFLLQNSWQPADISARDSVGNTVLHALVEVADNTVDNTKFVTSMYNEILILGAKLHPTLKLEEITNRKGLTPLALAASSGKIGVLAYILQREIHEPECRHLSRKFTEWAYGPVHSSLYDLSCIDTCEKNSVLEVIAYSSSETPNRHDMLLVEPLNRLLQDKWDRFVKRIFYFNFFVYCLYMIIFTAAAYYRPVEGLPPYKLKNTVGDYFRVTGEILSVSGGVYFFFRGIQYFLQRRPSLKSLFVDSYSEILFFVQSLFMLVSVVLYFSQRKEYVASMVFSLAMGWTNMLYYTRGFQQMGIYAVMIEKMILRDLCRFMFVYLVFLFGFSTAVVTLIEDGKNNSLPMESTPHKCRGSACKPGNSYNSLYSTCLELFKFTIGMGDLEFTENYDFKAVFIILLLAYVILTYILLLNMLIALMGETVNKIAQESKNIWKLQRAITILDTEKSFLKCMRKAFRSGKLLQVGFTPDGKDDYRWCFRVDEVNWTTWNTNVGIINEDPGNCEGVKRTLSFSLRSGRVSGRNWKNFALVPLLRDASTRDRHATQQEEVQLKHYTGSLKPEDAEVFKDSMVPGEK

First: CN(Cc1ccco1)c1nc2c(c(Nc3ccc(C(F)(F)F)cc3)n1)CCN(c1ncccc1C(F)(F)F)CC2 [Example 216, N^2-(Furan-2-ylmethyl)-N^2-methyl-N^4-[4-(trifluoromethyl)phenyl]-7-[3-(trifluoromethyl)pyridin-2-yl]-6,7,8,9-tetrahydro-5H-pyrimido[4,5-d]azepine-2,4-diamine trifluoroacetic acid salt]
Second: CC1CCCN(c2nc3c(c(Nc4ccc(C(F)(F)F)cc4)n2)CCN(c2ncccc2C(F)(F)F)CC3)C1 (stereo not drawn) [Example 240, 2-(3-Methylpiperidin-1-yl)-N-[4-(trifluoromethyl)phenyl]-7-[3-(trifluoromethyl)pyridin-2-yl]-6,7,8,9-tetrahydro-5H-pyrimido[4,5-d]azepin-4-amine trifluoroacetic acid salt]
The IC50 of the first is 2.5-fold higher: 50 nM for the first, 20 nM for the second.

First: FC(F)(F)c1ccc(Nc2nc(N3CCC3)nc3c2CCN(c2ncccc2C(F)(F)F)CC3)cn1 [Example 217, 2-Azetidin-1-yl-7-[3-(trifluoromethyl)pyridin-2-yl]-N-[6-(trifluoromethyl)pyridin-3-yl]-6,7,8,9-tetrahydro-5H-pyrimido[4,5-d]azepin-4-amine]
Second: FC(F)(F)c1ccc(Nc2nc(N3CCCCC3)nc3c2CCN(c2ncccc2C(F)(F)F)CC3)cn1 [Example 234, 2-Piperidin-1-yl-7-[3-(trifluoromethyl)pyridin-2-yl]-N-[6-(trifluoromethyl)pyridin-3-yl]-6,7,8,9-tetrahydro-5H-pyrimido[4,5-d]azepin-4-amine trifluoroacetic acid salt]
The IC50 of the first is 4.9-fold higher: 390 nM for the first, 80 nM for the second.

Going from `CN(C)c1nc2c(c(NCc3ccc(C(F)(F)F)nc3)n1)CCN(c1ncccc1C(F)(F)F)CC2` [Example 218, N^2,N^2-Dimethyl-7-[3-(trifluoromethyl)pyridin-2-yl]-N^4-{[6-(trifluoromethyl)pyridin-3-yl]methyl}-6,7,8,9-tetrahydro-5H-pyrimido[4,5-d]azepine-2,4-diamine trifluoroacetic acid salt] to `COCCN(C)c1nc2c(c(Nc3ccc(C(F)(F)F)nc3)n1)CCN(c1ncccc1C(F)(F)F)CC2` [Example 228, N^2-Methyl-N^2-[2-(methyloxy)ethyl]-7-[3-(trifluoromethyl)pyridin-2-yl]-N^4-[6-(trifluoromethyl)pyridin-3-yl]-6,7,8,9-tetrahydro-5H-pyrimido[4,5-d]azepine-2,4-diamine trifluoroacetic acid salt], the IC50 falls from 120 nM to 40 nM (3-fold). The second is the more potent here.

First: CN1CCN(c2nc3c(c(Nc4ccc(C(F)(F)F)nc4)n2)CCN(c2ncccc2C(F)(F)F)CC3)CC1 [Example 220, 2-(4-Methylpiperazin-1-yl)-7-[3-(trifluoromethyl)pyridin-2-yl]-N-[6-(trifluoromethyl)pyridin-3-yl]-6,7,8,9-tetrahydro-5H-pyrimido[4,5-d]azepin-4-amine]
Second: CN1CCN(c2nc3c(c(Nc4ccc(C(F)(F)F)c(Cl)c4)n2)CCN(c2ncccc2C(F)(F)F)CC3)CC1 [Example 221, N-[3-Chloro-4-(trifluoromethyl)phenyl]-2-(4-methylpiperazin-1-yl)-7-[3-(trifluoromethyl)pyridin-2-yl]-6,7,8,9-tetrahydro-5H-pyrimido[4,5-d]azepin-4-amine]
The IC50 of the first is 2.1-fold higher: 1520 nM for the first, 720 nM for the second. The second is the more potent here.

Compared with `FC(F)(F)c1ccc(Nc2nc(N3CCCCCC3)nc3c2CCN(c2ncccc2C(F)(F)F)CC3)cc1` [Example 222, 2-Azepan-1-yl-N-[4-(trifluoromethyl)phenyl]-7-[3-(trifluoromethyl)pyridin-2-yl]-6,7,8,9-tetrahydro-5H-pyrimido[4,5-d]azepin-4-amine], `FC(F)(F)c1ccc(Nc2nc(N3CCCCCC3)nc3c2CCN(c2ncccc2C(F)(F)F)CC3)cn1` [Example 223, 2-Azepan-1-yl-7-[3-(trifluoromethyl)pyridin-2-yl]-N-[6-(trifluoromethyl)pyridin-3-yl]-6,7,8,9-tetrahydro-5H-pyrimido[4,5-d]azepin-4-amine] is 1.5-fold higher in IC50: 20 nM for the first, 30 nM for the second.

Compared with `FC(F)(F)c1ccc(Nc2nc(N3CCCCCC3)nc3c2CCN(c2ncccc2C(F)(F)F)CC3)cc1Cl` [Example 224, 2-Azepan-1-yl-N-[3-chloro-4-(trifluoromethyl)phenyl]-7-[3-(trifluoromethyl)pyridin-2-yl]-6,7,8,9-tetrahydro-5H-pyrimido[4,5-d]azepin-4-amine], `FC(F)(F)c1ccc(Nc2nc(N3CCCCC3)nc3c2CCN(c2ncccc2C(F)(F)F)CC3)cc1Cl` [Example 233, N-[3-Chloro-4-(trifluoromethyl)phenyl]-2-piperidin-1-yl-7-[3-(trifluoromethyl)pyridin-2-yl]-6,7,8,9-tetrahydro-5H-pyrimido[4,5-d]azepin-4-amine trifluoroacetic acid salt] is 8.5-fold higher in IC50: 20 nM for the first, 170 nM for the second. The first is the more potent here.

First: COCCN(C)c1nc2c(c(Nc3ccc(C(F)(F)F)c(Cl)c3)n1)CCN(c1ncccc1C(F)(F)F)CC2 [Example 229, N^4-[3-Chloro-4-(trifluoromethyl)phenyl]-N^2-methyl-N^2-[2-(methyloxy)ethyl]-7-[3-(trifluoromethyl)pyridin-2-yl]-6,7,8,9-tetrahydro-5H-pyrimido[4,5-d]azepine-2,4-diamine trifluoroacetic acid salt]
Second: FC(F)(F)c1ccc(Nc2nc(N3CCC3)nc3c2CCN(c2ncccc2C(F)(F)F)CC3)cc1Cl [Example 231, 2-Azetidin-1-yl-N-[3-chloro-4-(trifluoromethyl)phenyl]-7-[3-(trifluoromethyl)pyridin-2-yl]-6,7,8,9-tetrahydro-5H-pyrimido[4,5-d]azepin-4-amine trifluoroacetic acid salt]
The IC50 of the first is 1.7-fold lower: 60 nM for the first, 100 nM for the second. The first is the more potent here.

Compared with `FC1(F)CCCN(c2nc3c(c(Nc4ccc(C(F)(F)F)cc4)n2)CCN(c2ncccc2C(F)(F)F)CC3)C1` [Example 238, 2-(3,3-Difluoropiperidin-1-yl)-N-[4-(trifluoromethyl)phenyl]-7-[3-(trifluoromethyl)pyridin-2-yl]-6,7,8,9-tetrahydro-5H-pyrimido[4,5-d]azepin-4-amine trifluoroacetic acid salt], `FC1(F)CCN(c2nc3c(c(Nc4ccc(C(F)(F)F)cc4)n2)CCN(c2ncccc2C(F)(F)F)CC3)C1` [Example 243, 2-(3,3-Difluoropyrrolidin-1-yl)-N-[4-(trifluoromethyl)phenyl]-7-[3-(trifluoromethyl)pyridin-2-yl]-6,7,8,9-tetrahydro-5H-pyrimido[4,5-d]azepin-4-amine trifluoroacetic acid salt] is 11-fold higher in IC50: 40 nM for the first, 450 nM for the second.

First: FC1(F)CN(c2nc3c(c(Nc4ccc(C(F)(F)F)cc4)n2)CCN(c2ncccc2C(F)(F)F)CC3)C1 [Example 241, 2-(3,3-Difluoroazetidin-1-yl)-N-[4-(trifluoromethyl)phenyl]-7-[3-(trifluoromethyl)pyridin-2-yl]-6,7,8,9-tetrahydro-5H-pyrimido[4,5-d]azepin-4-amine]
Second: FC1(F)CCN(c2nc3c(c(Nc4ccc(C(F)(F)F)cc4)n2)CCN(c2ncccc2C(F)(F)F)CC3)CC1 [Example 242, 2-(4,4-Difluoropiperidin-1-yl)-N-[4-(trifluoromethyl)phenyl]-7-[3-(trifluoromethyl)pyridin-2-yl]-6,7,8,9-tetrahydro-5H-pyrimido[4,5-d]azepin-4-amine]
The IC50 of the first is 1.9-fold higher: 170 nM for the first, 90 nM for the second.
